Experimental data: the kinase profiling compilation of Christmann-Franck et al. (2016)

What was measured:
Assay in all cases: KINOMEscan competition binding
Details in all cases: compound 10.0 µM
ACVR1 (human) = ACVR1 (human) (UniProt Q04771)
ACVRL1 (human) = ACVRL1 (human) (UniProt P37023)
AKT1 (human) = AKT1 (human) (UniProt P31749)
AURKB (human) = AURKB (human) (UniProt Q96GD4)
CAMK2G (human) = CAMK2G (human) (UniProt Q13555)
CDC42BPA (human) = CDC42BPA (human) (UniProt Q5VT25)
CDC42BPG (human) = CDC42BPG (human) (UniProt Q6DT37)
CDK13 (human) = CDK13 (human) (UniProt Q14004)
CLK1 (human) = CLK1 (human) (UniProt P49759)
CLK1 (human), sequence (P49759 whole entry, looked up): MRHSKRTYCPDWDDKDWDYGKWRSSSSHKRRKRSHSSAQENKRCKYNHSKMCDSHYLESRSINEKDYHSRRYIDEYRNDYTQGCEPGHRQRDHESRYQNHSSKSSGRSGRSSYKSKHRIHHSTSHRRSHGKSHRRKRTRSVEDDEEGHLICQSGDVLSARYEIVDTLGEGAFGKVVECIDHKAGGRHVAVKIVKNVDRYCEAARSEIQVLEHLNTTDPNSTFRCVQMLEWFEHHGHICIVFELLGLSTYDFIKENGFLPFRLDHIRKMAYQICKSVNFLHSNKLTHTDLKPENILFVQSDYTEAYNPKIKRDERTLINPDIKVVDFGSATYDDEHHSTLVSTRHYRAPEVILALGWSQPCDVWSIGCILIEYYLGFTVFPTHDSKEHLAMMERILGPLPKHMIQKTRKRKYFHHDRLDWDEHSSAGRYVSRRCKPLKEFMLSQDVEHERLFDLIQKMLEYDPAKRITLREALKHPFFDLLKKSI

CLK2 (human) = CLK2 (human) (UniProt P49760)
CSNK1A1 (human) = CSNK1A1 (human) (UniProt P48729)
CSNK1E (human) = CSNK1E (human) (UniProt P49674)
CSNK1G2 (human) = CSNK1G2 (human) (UniProt P78368)
DYRK1A (human) = DYRK1A (human) (UniProt Q13627)
EIF2AK1 (human) = EIF2AK1 (human) (UniProt Q9BQI3)
EIF2AK1 (human), sequence (Q9BQI3 whole entry, looked up): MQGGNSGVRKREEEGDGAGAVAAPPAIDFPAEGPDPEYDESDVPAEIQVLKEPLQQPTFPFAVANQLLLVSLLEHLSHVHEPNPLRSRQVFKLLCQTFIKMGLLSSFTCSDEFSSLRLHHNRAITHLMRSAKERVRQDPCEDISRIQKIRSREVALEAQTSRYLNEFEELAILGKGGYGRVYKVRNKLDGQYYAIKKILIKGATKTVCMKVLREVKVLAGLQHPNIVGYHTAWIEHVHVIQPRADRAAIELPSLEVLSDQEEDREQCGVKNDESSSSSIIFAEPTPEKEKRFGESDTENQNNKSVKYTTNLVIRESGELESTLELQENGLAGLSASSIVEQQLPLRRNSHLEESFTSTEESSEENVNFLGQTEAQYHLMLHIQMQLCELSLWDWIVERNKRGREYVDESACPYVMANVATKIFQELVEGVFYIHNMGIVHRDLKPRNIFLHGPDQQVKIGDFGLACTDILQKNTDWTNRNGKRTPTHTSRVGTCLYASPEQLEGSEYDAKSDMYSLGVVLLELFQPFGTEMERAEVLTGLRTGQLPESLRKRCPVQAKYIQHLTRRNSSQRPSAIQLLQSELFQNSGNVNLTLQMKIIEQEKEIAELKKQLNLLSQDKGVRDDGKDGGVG

EPHA6 (human) = EPHA6 (human) (UniProt Q9UF33)
EPHB1 (human) = EPHB1 (human) (UniProt P54762)
[1] = test system: FLT3 (human), P36888 [R834Q]
GRK1 (human) = GRK1 (human) (UniProt Q15835)
GRK7 (human) = GRK7 (human) (UniProt Q8WTQ7)
IKBKE (human) = IKBKE (human) (UniProt Q14164)
LCK (human) = LCK (human) (UniProt P06239)
MAP2K6 (human) = MAP2K6 (human) (UniProt P52564)
MAP3K11 (human) = MAP3K11 (human) (UniProt Q16584)
MAP3K11 (human), sequence (Q16584 whole entry, looked up): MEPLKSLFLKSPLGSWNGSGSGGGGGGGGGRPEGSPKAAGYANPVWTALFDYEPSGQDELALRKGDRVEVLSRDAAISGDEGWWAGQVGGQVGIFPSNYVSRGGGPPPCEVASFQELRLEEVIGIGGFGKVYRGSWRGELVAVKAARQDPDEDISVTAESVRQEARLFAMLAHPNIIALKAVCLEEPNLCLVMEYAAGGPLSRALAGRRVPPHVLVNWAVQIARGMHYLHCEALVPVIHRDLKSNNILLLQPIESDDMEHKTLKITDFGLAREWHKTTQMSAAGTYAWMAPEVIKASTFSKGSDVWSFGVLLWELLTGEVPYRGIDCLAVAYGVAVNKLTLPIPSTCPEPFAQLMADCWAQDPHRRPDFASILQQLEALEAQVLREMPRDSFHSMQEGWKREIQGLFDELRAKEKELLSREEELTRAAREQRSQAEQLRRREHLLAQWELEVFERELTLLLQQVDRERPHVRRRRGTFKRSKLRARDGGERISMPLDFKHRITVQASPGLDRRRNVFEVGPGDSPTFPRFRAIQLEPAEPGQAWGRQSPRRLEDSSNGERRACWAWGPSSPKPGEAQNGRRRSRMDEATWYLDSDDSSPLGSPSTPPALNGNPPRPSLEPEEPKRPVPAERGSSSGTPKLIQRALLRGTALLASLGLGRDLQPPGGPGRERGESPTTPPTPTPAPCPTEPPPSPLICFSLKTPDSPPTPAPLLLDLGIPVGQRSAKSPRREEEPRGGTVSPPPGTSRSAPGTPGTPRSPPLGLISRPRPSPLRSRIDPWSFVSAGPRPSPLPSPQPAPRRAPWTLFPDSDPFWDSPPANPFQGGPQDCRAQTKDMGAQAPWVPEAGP

MAP3K12 (human) = MAP3K12 (human) (UniProt Q12852)
MAP4K1 (human) = MAP4K1 (human) (UniProt Q92918)
MAP4K3 (human) = MAP4K3 (human) (UniProt Q8IVH8)
MAPK7 (human) = MAPK7 (human) (UniProt Q13164)
MAPK7 (human), sequence (Q13164 whole entry, looked up): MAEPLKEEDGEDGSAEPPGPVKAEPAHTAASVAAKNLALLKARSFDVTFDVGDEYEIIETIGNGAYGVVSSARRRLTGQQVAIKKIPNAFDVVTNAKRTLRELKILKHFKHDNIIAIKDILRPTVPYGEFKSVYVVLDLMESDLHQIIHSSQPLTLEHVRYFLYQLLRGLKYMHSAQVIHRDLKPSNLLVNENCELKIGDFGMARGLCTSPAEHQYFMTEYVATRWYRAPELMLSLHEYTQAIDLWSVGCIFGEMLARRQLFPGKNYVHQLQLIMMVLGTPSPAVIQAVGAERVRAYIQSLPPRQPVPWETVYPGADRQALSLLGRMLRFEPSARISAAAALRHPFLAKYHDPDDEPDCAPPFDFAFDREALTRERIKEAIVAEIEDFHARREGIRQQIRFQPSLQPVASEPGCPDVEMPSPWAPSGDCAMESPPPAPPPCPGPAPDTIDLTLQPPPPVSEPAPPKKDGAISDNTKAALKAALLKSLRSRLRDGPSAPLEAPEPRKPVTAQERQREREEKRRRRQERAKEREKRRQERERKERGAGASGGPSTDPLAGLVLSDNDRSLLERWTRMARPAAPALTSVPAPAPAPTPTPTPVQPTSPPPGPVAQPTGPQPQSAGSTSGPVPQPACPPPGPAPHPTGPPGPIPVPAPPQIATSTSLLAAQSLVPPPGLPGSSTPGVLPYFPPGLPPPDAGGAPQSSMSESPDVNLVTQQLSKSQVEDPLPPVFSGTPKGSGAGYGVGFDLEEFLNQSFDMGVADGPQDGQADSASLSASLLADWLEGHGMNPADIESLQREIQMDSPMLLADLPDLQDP

MAPKAPK2 (human) = MAPKAPK2 (human) (UniProt P49137)
MAPKAPK5 (human) = MAPKAPK5 (human) (UniProt Q8IW41)
MARK1 (human) = MARK1 (human) (UniProt Q9P0L2)
MTOR (human) = MTOR (human) (UniProt P42345)
NIM1 (human) = NIM1 (human) (UniProt Q8IY84)
PIK3C2B (human) = PIK3C2B (human) (UniProt O00750)
PIK3C2B (human), sequence (O00750 whole entry, looked up): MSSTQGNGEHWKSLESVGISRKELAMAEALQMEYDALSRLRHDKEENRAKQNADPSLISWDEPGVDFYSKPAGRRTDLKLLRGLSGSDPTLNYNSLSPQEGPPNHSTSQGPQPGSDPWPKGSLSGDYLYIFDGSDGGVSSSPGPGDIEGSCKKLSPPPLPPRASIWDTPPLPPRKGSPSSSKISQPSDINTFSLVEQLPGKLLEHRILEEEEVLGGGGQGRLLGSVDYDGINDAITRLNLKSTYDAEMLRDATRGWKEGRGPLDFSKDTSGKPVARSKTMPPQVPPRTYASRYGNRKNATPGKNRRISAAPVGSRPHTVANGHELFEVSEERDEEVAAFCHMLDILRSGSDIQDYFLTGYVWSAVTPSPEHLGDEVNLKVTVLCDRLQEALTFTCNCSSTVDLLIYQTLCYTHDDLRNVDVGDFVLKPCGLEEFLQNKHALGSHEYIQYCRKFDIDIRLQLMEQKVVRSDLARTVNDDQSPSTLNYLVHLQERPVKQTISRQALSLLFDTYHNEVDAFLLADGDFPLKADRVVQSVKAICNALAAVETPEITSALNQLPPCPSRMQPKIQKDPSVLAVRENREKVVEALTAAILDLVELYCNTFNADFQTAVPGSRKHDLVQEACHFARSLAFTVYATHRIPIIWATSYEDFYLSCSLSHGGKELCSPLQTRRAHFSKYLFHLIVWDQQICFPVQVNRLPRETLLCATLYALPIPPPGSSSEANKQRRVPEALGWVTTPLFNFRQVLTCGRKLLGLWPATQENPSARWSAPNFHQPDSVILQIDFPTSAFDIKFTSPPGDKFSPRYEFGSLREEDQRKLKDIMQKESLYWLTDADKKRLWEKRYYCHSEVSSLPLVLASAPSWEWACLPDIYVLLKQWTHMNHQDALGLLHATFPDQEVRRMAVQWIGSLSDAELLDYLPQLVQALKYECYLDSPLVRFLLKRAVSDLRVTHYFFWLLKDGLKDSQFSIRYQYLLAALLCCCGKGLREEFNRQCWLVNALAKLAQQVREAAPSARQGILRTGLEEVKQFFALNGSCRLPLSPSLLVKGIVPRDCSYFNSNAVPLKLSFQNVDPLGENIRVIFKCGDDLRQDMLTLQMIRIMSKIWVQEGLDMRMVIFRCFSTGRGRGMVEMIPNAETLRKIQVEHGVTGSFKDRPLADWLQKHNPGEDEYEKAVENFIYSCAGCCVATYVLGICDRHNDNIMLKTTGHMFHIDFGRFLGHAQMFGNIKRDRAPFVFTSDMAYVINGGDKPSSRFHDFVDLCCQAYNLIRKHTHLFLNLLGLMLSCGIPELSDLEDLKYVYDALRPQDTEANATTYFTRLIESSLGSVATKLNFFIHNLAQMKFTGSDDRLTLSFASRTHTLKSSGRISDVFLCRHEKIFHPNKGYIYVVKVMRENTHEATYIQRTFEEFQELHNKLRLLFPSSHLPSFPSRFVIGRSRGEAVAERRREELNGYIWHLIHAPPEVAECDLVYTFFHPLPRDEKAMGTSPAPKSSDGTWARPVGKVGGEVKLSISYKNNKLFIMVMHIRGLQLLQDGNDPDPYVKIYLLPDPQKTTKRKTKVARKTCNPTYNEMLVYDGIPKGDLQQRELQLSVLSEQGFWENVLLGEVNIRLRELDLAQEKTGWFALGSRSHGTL

PIK3CB (human) = PIK3CB (human) (UniProt P42338)
PRKG2 (human) = PRKG2 (human) (UniProt Q13237)
STK17A (human) = STK17A (human) (UniProt Q9UEE5)
STK17A (human), sequence (Q9UEE5 whole entry, looked up): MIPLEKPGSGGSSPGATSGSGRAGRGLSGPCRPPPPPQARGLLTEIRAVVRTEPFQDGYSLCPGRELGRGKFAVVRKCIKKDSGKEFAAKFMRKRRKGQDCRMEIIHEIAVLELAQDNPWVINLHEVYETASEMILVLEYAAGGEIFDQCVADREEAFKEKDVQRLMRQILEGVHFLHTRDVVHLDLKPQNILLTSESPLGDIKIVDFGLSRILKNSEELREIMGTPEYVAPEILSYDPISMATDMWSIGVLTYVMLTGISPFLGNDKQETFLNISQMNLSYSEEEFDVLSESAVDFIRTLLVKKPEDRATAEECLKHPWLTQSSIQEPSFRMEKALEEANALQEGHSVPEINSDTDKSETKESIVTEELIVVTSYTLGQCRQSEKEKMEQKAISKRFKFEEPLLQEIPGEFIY

STK25 (human) = STK25 (human) (UniProt O00506)
TIE1 (human) = TIE1 (human) (UniProt P35590)
[2] = test system: EGFR (human), P00533 [T790M/L858R]

SMILES	kinase still bound, per cent of control (ACVR1 (human)) [%]	kinase still bound, per cent of control (ACVRL1 (human)) [%]	kinase still bound, per cent of control (AKT1 (human)) [%]	kinase still bound, per cent of control (CDC42BPA (human)) [%]	kinase still bound, per cent of control (CDK13 (human)) [%]	kinase still bound, per cent of control (CLK1 (human)) [%]	kinase still bound, per cent of control (CLK2 (human)) [%]	kinase still bound, per cent of control (CSNK1A1 (human)) [%]	kinase still bound, per cent of control (CSNK1E (human)) [%]	kinase still bound, per cent of control (CSNK1G2 (human)) [%]	kinase still bound, per cent of control (EIF2AK1 (human)) [%]	kinase still bound, per cent of control (EPHA6 (human)) [%]	kinase still bound, per cent of control (EPHB1 (human)) [%]	kinase still bound, per cent of control [1] [%]	kinase still bound, per cent of control (GRK1 (human)) [%]	kinase still bound, per cent of control (GRK7 (human)) [%]	kinase still bound, per cent of control (IKBKE (human)) [%]	kinase still bound, per cent of control (MAP2K6 (human)) [%]	kinase still bound, per cent of control (MAP3K12 (human)) [%]	kinase still bound, per cent of control (MAP4K3 (human)) [%]	further results
N#CCNC(=O)c1ccc(-c2ccnc(Nc3ccc(N4CCOCC4)cc3)n2)cc1	0.95	47	100	67	91	9.6	7.4	81	100	100	100	98	91	100	100	100	5.2	77	100	57	kinase still bound, per cent of control (AURKB (human)): 69%; kinase still bound, per cent of control (CAMK2G (human)): 36%; kinase still bound, per cent of control (CDC42BPG (human)): 96%; kinase still bound, per cent of control (DYRK1A (human)): 66%; kinase still bound, per cent of control (LCK (human)): 90%; kinase still bound, per cent of control (MAP3K11 (human)): 95%; kinase still bound, per cent of control (MAP4K1 (human)): 11%; kinase still bound, per cent of control (MAPK7 (human)): 48%; kinase still bound, per cent of control (MAPKAPK2 (human)): 100%; kinase still bound, per cent of control (MAPKAPK5 (human)): 4.4%; kinase still bound, per cent of control (MARK1 (human)): 66%; kinase still bound, per cent of control (MTOR (human)): 100%; kinase still bound, per cent of control (NIM1 (human)): 100%; kinase still bound, per cent of control (PIK3C2B (human)): 56%; kinase still bound, per cent of control (PIK3CB (human)): 100%; kinase still bound, per cent of control (PRKG2 (human)): 100%; kinase still bound, per cent of control (STK17A (human)): 0.2%; kinase still bound, per cent of control (STK25 (human)): 71%; kinase still bound, per cent of control (TIE1 (human)): 87%
COCC(=O)NC/C=C/c1ccc2ncnc(Nc3ccc(Oc4ccc(C)nc4)c(C)c3)c2c1	90	84	100	100	100	90	75	100	100	100	100	96	100	100	100	100	100	93	92	80	kinase still bound, per cent of control (AURKB (human)): 100%; kinase still bound, per cent of control (CAMK2G (human)): 94%; kinase still bound, per cent of control (CDC42BPG (human)): 90%; kinase still bound, per cent of control (LCK (human)): 59%; kinase still bound, per cent of control (MAP3K11 (human)): 92%; kinase still bound, per cent of control (MAP4K1 (human)): 91%; kinase still bound, per cent of control (MAPK7 (human)): 100%; kinase still bound, per cent of control (MAPKAPK2 (human)): 100%; kinase still bound, per cent of control (MAPKAPK5 (human)): 100%; kinase still bound, per cent of control (MARK1 (human)): 100%; kinase still bound, per cent of control (MTOR (human)): 79%; kinase still bound, per cent of control (NIM1 (human)): 87%; kinase still bound, per cent of control (PIK3C2B (human)): 88%; kinase still bound, per cent of control (PIK3CB (human)): 100%; kinase still bound, per cent of control (PRKG2 (human)): 100%; kinase still bound, per cent of control (STK17A (human)): 84%; kinase still bound, per cent of control (STK25 (human)): 94%; kinase still bound, per cent of control (TIE1 (human)): 100%
NC(=O)Nc1cc(-c2cccc(F)c2)sc1C(=O)N[C@@H]1CCCNC1	4	76	3.2	62	100	1.2	0.65	0.5	11	0.95	88	8.2	1.6	5.6	0.6	0.15	3.6	3.8	9.7	0.35	kinase still bound, per cent of control (AURKB (human)): 4.8%; kinase still bound, per cent of control (CAMK2G (human)): 24%; kinase still bound, per cent of control (CDC42BPG (human)): 72%; kinase still bound, per cent of control (DYRK1A (human)): 0%; kinase still bound, per cent of control [2]: 5%; kinase still bound, per cent of control (LCK (human)): 0%; kinase still bound, per cent of control (MAPK7 (human)): 80%; kinase still bound, per cent of control (MAPKAPK2 (human)): 0%; kinase still bound, per cent of control (MAPKAPK5 (human)): 0.05%; kinase still bound, per cent of control (MARK1 (human)): 2.6%; kinase still bound, per cent of control (MTOR (human)): 72%; kinase still bound, per cent of control (NIM1 (human)): 13%; kinase still bound, per cent of control (PIK3C2B (human)): 16%; kinase still bound, per cent of control (PIK3CB (human)): 68%; kinase still bound, per cent of control (PRKG2 (human)): 0.5%; kinase still bound, per cent of control (STK17A (human)): 0.55%; kinase still bound, per cent of control (STK25 (human)): 0%; kinase still bound, per cent of control (TIE1 (human)): 7.2%
CNC(=O)c1cc(Oc2ccc(NC(=O)Nc3ccc(Cl)c(C(F)(F)F)c3)cc2)ccn1	100	77	100	95	86	23	55	100	100	94	57	9.2	30	50	100	100	100	76	57	54	kinase still bound, per cent of control (DYRK1A (human)): 100%; kinase still bound, per cent of control (MAP3K11 (human)): 99%; kinase still bound, per cent of control (MAP4K1 (human)): 41%; kinase still bound, per cent of control (MAPK7 (human)): 85%; kinase still bound, per cent of control (MAPKAPK2 (human)): 100%; kinase still bound, per cent of control (MAPKAPK5 (human)): 100%; kinase still bound, per cent of control (MARK1 (human)): 100%; kinase still bound, per cent of control (MTOR (human)): 80%; kinase still bound, per cent of control (NIM1 (human)): 97%; kinase still bound, per cent of control (PIK3C2B (human)): 92%; kinase still bound, per cent of control (PIK3CB (human)): 100%; kinase still bound, per cent of control (PRKG2 (human)): 96%; kinase still bound, per cent of control (STK17A (human)): 45%; kinase still bound, per cent of control (STK25 (human)): 80%
